# Test results taken from US11292807B2 (OCEANS LTD., priority 2015, dated 2022).
# Like-named read-outs stand apart in the source and are kept apart here.
# Experiments:
# [1] = tested on: U373 (glioblastoma-astrocytoma); test: CIMA assay, cell viability, U373
# A549 (lung carcinoma) = test: CIMA assay (colorimetric indicator of metabolic activity), cell viability, A549; conditions: for Average cell viability: unit assumed
# MDA-MB = conditions: for Fold change in viability AVG / MDA-MB AVG: MDA-MB; for Average cell viability: human, 72 h
# [2] = U373, 1 ug/mL, listed as 174-13-14-3
# [3] = U373, 10 ug/mL, listed as 169-14-15-4
# [4] = U373, 10 ug/mL, listed as 174-13-14-3
# [5] = U373, 50 ug/mL, listed as 169-14-15-4
# [6] = U373, 50 ug/mL, listed as 174-13-14-3
# [7] = A549, 1 ug/mL, listed as 174-13-14-3
# [8] = A549, 10 ug/mL, listed as 169-14-15-4
# [9] = A549, 10 ug/mL, listed as 174-13-14-3
# [10] = A549, 50 ug/mL, listed as 169-14-15-4
# [11] = A549, 50 ug/mL, listed as 174-13-14-3
# [12] = A549, 100 ug/mL, listed as 169-14-15-4
# [13] = A549, 100 ug/mL, listed as 174-13-14-3
smiles,measurement,setting,value
"CC/C=C\C/C=C\C/C=C\C/C=C\C/C=C\CCCC(=O)OCC(COC1OC(CO)C(O)C(O)C1O)OC(=O)CCCCCCCCCCCCCCC (centres unmarked) [Compound 2, MGDG C20:5/C16:0]",Fold change in viability AVG,"[1]; U373, 1 ug/mL, listed as 169-14-15-4",1.08
same,Average cell viability,[1]; [2],85%
same,Fold change in viability AVG,[1]; [2],0.86
same,Average cell viability,[1]; [3],94%
same,Fold change in viability AVG,[1]; [3],0.95
same,Average cell viability,[1]; [4],73%
same,Fold change in viability AVG,[1]; [4],0.74
same,Average cell viability,[1]; [5],30%
same,Fold change in viability AVG,[1]; [5],0.30
same,Average cell viability,[1]; [6],13%
same,Fold change in viability AVG,[1]; [6],0.13
same,U373 AVG,"[1]; U373, sample at 1 ug/mL, listed as 169-14-15-4",1.08
same,U373 AVG,"[1]; U373, sample at 1 ug/mL, listed as 174-13-14-3",0.86
same,U373 AVG,"[1]; U373, sample at 10 ug/mL, listed as 169-14-15-4",0.95
same,U373 AVG,"[1]; U373, sample at 10 ug/mL, listed as 174-13-14-3",0.74
same,U373 AVG,"[1]; U373, sample at 50 ug/mL, listed as 169-14-15-4",0.30
same,U373 AVG,"[1]; U373, sample at 50 ug/mL, listed as 174-13-14-3",0.13
same,U373 AVG,"[1]; U373, sample at 100 ug/mL",0.08
same,Fold change in viability AVG,"[1]; U373, 100 ug/mL",0.08
same,Fold change in viability AVG,"A549 (lung carcinoma); A549, 1 ug/mL, listed as 169-14-15-4",1.19
same,Fold change in viability AVG,A549 (lung carcinoma); [7],1.12
same,Average cell viability,A549 (lung carcinoma); [7],96%
same,Fold change in viability AVG,A549 (lung carcinoma); [8],1.14
same,Average cell viability,A549 (lung carcinoma); [8],98%
same,Fold change in viability AVG,A549 (lung carcinoma); [9],0.60
same,Average cell viability,A549 (lung carcinoma); [9],52%
same,Fold change in viability AVG,A549 (lung carcinoma); [10],0.98
same,Average cell viability,A549 (lung carcinoma); [10],84%
same,Fold change in viability AVG,A549 (lung carcinoma); [11],0.60
same,Average cell viability,A549 (lung carcinoma); [11],51%
same,Fold change in viability AVG,A549 (lung carcinoma); [12],0.74
same,Average cell viability,A549 (lung carcinoma); [12],64%
same,Fold change in viability AVG,A549 (lung carcinoma); [13],0.41
same,Average cell viability,A549 (lung carcinoma); [13],35%
same,A549 AVG,"A549 (lung carcinoma); A549, sample at 1 ug/mL, listed as 169-14-15-4",1.19
same,A549 AVG,"A549 (lung carcinoma); A549, sample at 1 ug/mL, listed as 174-13-14-3",1.12
same,A549 AVG,"A549 (lung carcinoma); A549, sample at 10 ug/mL, listed as 169-14-15-4",1.14
same,A549 AVG,"A549 (lung carcinoma); A549, sample at 10 ug/mL, listed as 174-13-14-3",0.60
same,A549 AVG,"A549 (lung carcinoma); A549, sample at 50 ug/mL, listed as 169-14-15-4",0.98
same,A549 AVG,"A549 (lung carcinoma); A549, sample at 50 ug/mL, listed as 174-13-14-3",0.60
same,A549 AVG,"A549 (lung carcinoma); A549, sample at 100 ug/mL, listed as 169-14-15-4",0.74
same,A549 AVG,"A549 (lung carcinoma); A549, sample at 100 ug/mL, listed as 174-13-14-3",0.41
same,viability at 1 µg/mL,"A549 (lung carcinoma); Homo sapiens, A549, read-out: Average cell viability, A549, 1 ug/mL",102%
same,Fold change in viability AVG,"MDA-MB; 1 ug/mL, listed as 169-14-15-4",1.09
same,Fold change in viability AVG,"MDA-MB; 1 ug/mL, listed as 174-13-14-3",1.11
same,Fold change in viability AVG,"MDA-MB; 10 ug/mL, listed as 169-14-15-4",1.09
same,Fold change in viability AVG,"MDA-MB; 10 ug/mL, listed as 174-13-14-3",0.90
same,Fold change in viability AVG,"MDA-MB; 50 ug/mL, listed as 169-14-15-4",0.49
same,Fold change in viability AVG,"MDA-MB; 50 ug/mL, listed as 174-13-14-3",0.23
same,Fold change in viability AVG,"MDA-MB; 100 ug/mL, listed as 169-14-15-4",0.24
same,Fold change in viability AVG,"MDA-MB; 100 ug/mL, listed as 174-13-14-3",0.22
same,MDA-MB AVG,"MDA-MB; sample at 1 ug/mL, listed as 169-14-15-4",1.09
same,MDA-MB AVG,"MDA-MB; sample at 1 ug/mL, listed as 174-13-14-3",1.11
same,MDA-MB AVG,"MDA-MB; sample at 10 ug/mL, listed as 169-14-15-4",1.09
same,MDA-MB AVG,"MDA-MB; sample at 10 ug/mL, listed as 174-13-14-3",0.90
same,MDA-MB AVG,"MDA-MB; sample at 50 ug/mL, listed as 169-14-15-4",0.49
same,MDA-MB AVG,"MDA-MB; sample at 50 ug/mL, listed as 174-13-14-3",0.23
same,MDA-MB AVG,"MDA-MB; sample at 100 ug/mL, listed as 169-14-15-4",0.24
same,MDA-MB AVG,"MDA-MB; sample at 100 ug/mL, listed as 174-13-14-3",0.22
same,Average cell viability,MDA-MB; 1 ug/mL,102%
same,Average cell viability,MDA-MB; 10 ug/mL,83%
same,Average cell viability,MDA-MB; 100 ug/mL,20%
